In patent US9266834B2, “1, 4-disubstituted 3-cyano-pyridone derivatives and their use as positive allosteric modulators of MGLUR2-receptors” (JANSSEN PHARMACEUTICALS, INC., priority 2006, dated 2016):

Assays:
human mGluR2 receptor = target: T1, human mGluR2 receptor (Homo sapiens, UniProt Q14416); experiment: [35S]GTPγS binding assay (GTPγS-PAM): positive allosteric modulation in presence of glutamate at EC25, membranes from transfected CHO cells; type: biochemical; details: in presence of mGluR2 agonist glutamate at predetermined EC25 concentration, averages of duplicate values of 11-concentration response curves, read-out: GTPgS - hR2 PAM pEC50 (converted)
T1 construct: expressed in transfected cells; host or cells: CHO cells (membrane preparation)
Method in brief: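 Membranes came from butyrate-stimulated CHO cells expressing human mGluR2, used at 15 μg/well in HEPES pH 7.4 with 100 mM NaCl, 3 mM MgCl2, 50 μM GDP and saponin. Compound (0.3 nM-50 μM, 11 concentrations) plus glutamate at EC25 was preincubated 30 min at 30° C., then 0.1 nM [35S]GTPγS was added for 30 min. Filter-bound radioactivity was counted, nonspecific binding was taken with 10 μM GTP, and curves were fitted by four-parameter logistic.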

T1 sequence (Q14416 19-872): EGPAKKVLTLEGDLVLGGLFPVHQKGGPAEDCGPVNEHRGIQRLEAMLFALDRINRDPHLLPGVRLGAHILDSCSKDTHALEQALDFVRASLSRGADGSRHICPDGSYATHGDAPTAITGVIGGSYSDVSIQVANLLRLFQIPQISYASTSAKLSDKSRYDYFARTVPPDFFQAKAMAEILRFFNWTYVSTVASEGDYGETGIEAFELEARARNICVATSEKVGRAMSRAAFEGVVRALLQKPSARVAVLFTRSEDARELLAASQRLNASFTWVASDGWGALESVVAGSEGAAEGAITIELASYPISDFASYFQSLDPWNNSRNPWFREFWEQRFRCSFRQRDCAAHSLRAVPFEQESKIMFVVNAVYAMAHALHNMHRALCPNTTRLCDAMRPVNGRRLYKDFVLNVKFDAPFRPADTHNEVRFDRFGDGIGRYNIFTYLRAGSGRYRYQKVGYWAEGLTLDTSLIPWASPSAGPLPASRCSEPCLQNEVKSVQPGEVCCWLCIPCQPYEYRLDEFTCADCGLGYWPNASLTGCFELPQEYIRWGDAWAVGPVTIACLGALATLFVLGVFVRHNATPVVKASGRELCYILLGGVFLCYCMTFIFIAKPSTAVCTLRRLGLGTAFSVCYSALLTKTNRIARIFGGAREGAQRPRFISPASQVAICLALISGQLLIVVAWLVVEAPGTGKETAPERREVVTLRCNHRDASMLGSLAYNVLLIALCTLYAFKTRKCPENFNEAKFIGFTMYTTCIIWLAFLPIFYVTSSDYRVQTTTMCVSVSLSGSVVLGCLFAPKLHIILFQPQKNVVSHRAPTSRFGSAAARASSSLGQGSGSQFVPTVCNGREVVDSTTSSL

Structure (SMILES) | melting point [°C] | EC50 (human mGluR2 receptor) [nM]
N#Cc1c(-c2ccccc2)ccn(CC2CCCCC2)c1=O [1-009] | 149 | 1580
COc1ccccc1-c1ccn(CC2CCCCC2)c(=O)c1C#N [1-011] | 60 | 2000
COc1ccc(-c2ccn(CC3CCC(C)CC3)c(=O)c2C#N)cc1 (stereo not shown) [1-013] | 128 | 126
CC1CCC(Cn2ccc(-c3ccc(OC(F)(F)F)cc3)c(C#N)c2=O)CC1 (stereo not shown) [1-014] | 143 | 100
Cc1ccc(Cn2ccc(-c3ccco3)c(C#N)c2=O)cc1 [1-018] | 155 | 2510
Cc1ccc(Cn2ccc(-c3cccs3)c(C#N)c2=O)cc1 [1-019] | 118 | 794
N#Cc1c(-c2ccccc2)ccn(Cc2cccc(OC(F)(F)F)c2)c1=O [1-030] | 153 | 316
N#Cc1c(-c2ccccc2)ccn(Cc2ccc(-c3ccccc3)cc2)c1=O [1-042] | 185 | 158
N#Cc1c(-c2cccs2)ccn(Cc2ccc(C(F)(F)F)nc2)c1=O [1-046] | 185 | 1260
COc1ccc(-c2ccn(CCOc3ccccc3)c(=O)c2C#N)cc1 [1-048] | 188 | 1000
N#Cc1c(-c2cccs2)ccn(CCCc2ccccc2)c1=O [1-052] | 118 | 2000
CCCCn1ccc(-c2ccc(N3CCCCC3)cc2)c(C#N)c1=O [1-058] | 122 | 316
CCCCn1ccc(-c2cccs2)c(C#N)c1=O [1-059] | 103 | 5010
CCCCn1ccc(-c2ccc(OCc3cccc(C)n3)cc2)c(C#N)c1=O [1-063] | 102 | 1000
CC(C)Cn1ccc(-c2cccs2)c(C#N)c1=O [1-077] | 108 | 3980
CC(C)Cn1ccc(-c2ccc(Oc3ccncc3)cc2)c(C#N)c1=O [1-078] | 170 | 3980
CCCC(C)n1ccc(-c2cccs2)c(C#N)c1=O (stereo not shown) [1-079] | 103 | 5010
CC(C)CCn1ccc(-c2cccs2)c(C#N)c1=O [1-082] | 123 | 2000

Other lines, results leading:

melting point [°C] | EC50 (human mGluR2 receptor) [nM] | Structure (SMILES)
181 | 126 | COc1ccc(-c2ccn(Cc3ccc(C(F)(F)F)cc3)c(=O)c2C#N)cc1 [1-024]
167 | 2510 | N#Cc1c(-c2ccc(CN3CCCCC3)cc2)ccn(Cc2ccc(OC(F)(F)F)cc2)c1=O [1-031]
190 | 794 | N#Cc1c(-c2ccc(N3CCOCC3)cc2)ccn(Cc2ccc(OC(F)(F)F)cc2)c1=O [1-032]
97 | 2510 | N#Cc1c(-c2ccc(CN3CCOCC3)cc2)ccn(Cc2ccc(OC(F)(F)F)cc2)c1=O [1-033]
136 | 794 | C[C@@H]1CN(Cc2ccc(-c3ccn(Cc4ccc(OC(F)(F)F)cc4)c(=O)c3C#N)cc2)C[C@H](C)O1 [1-035]
184 | 2000 | N#Cc1c(-c2ccc(OCCN3CCOCC3)cc2)ccn(Cc2ccc(OC(F)(F)F)cc2)c1=O [1-037]
140 | 794 | N#Cc1c(-c2ccc(OCCCN3CCOCC3)cc2)ccn(Cc2ccc(OC(F)(F)F)cc2)c1=O [1-038]
169 | 158 | COc1ccc(-c2ccn(Cc3ccc(OC(F)(F)F)cc3)c(=O)c2C#N)cc1 [1-039]
180 | 200 | N#Cc1c(-c2ccc(CCCO)cc2)ccn(Cc2ccc(OC(F)(F)F)cc2)c1=O [1-040]
155 | 251 | N#Cc1c(-c2ccc(Oc3ccccc3)cc2)ccn(Cc2ccc(OC(F)(F)F)cc2)c1=O [1-041]
123 | 1260 | CCCCn1ccc(-c2ccc(OC(F)(F)F)cc2)c(C#N)c1=O [1-055]
